Assay results published in patent publication US10369167B2, “Continuously expressed therapeutic RNAs for targeted protein binding and methods for their use” (priority 2016, dated 2019).
Several values for one entry are separate records, joined by “and”; a condition that tells them apart may be missing. Identical values can stand only once.

Assays:
[1] = tested on: HIV-1 Ba-L strain; assay: HIV challenge of stable Ghost3 (Ghost3+CXCR4+CCR5) cells, P24 assay; type: cell-based
Procedure: Ghost 3+CXCR4+CCR5 cells, HIV NL4-3 and Ba-L strains were obtained from the NIH AIDS Reagent Program. Ghost cells and HEK293 cells (ATCC CRL-1573) were grown on DMEM supplemented with 10% FBS and 1 mM Glutamine. CCRF-CEM (ATCC CRM-CCL-119) cells were grown in RPMI supplemented with 10% FBS and 1 mM Glutamine. HEK293 and Ghost cells were transfected with Lipofectamine 2000 according to the manufacturer's protocol (ThermoFisher, Waltham, Mass., USA). To generate stable HEK293 cell lines, 2 million cells were transfected with pJR255-based plasmids that express aptamers alone, shLuc, or shLuc-aptamer fusions. Transfected cells were selected with G418 (Gold Biotechnology, St. Louis, Mo., USA) for 10 to 14 days, followed by Fluorescent Activated Cell Sorting (FACS) to isolated mCherry positive cells. Typically, the brightest 10 to 30% of cells were collected. Second FACS was performed 7 to 10 days after the first sort to isolate stable cell populations. […] Ghost cells were already G418 resistant, therefore, no selection step was performed. 0.5M cells were transfected with pJR255 based plasmids that express shLuc, aptamer alone or shLuc-aptamer fusions. Transfected cells were sorted 7 days after transfection. Compared to HEK293 cells, the percentage of mCherry positive cells was much lower because no drug selection was applied. Typically, the brightest 5 to 10% of cells were collected. A second sort was performed 14 days later. If a decrease in mCherry signal was observed, a third sort was performed.
(§1) For the lentivirus challenge, 5×10^4 HEK293 cells stably expressing the aptamer alone, the shRNA alone or the shRNA-aptamer fusions were transduced with HIV7-GFP lentivirus particles at an MOI of 0.3 in 500 μl cell culture medium. Cells were harvested 10 days post-transduction and analyzed by FACS. For an initial HIV challenge, 5×10^4 Ghost(3)X4/R5 cells stably expressing shRNA alone or shRNA-aptamer fusions were infected with HIV-1 Ba-L strain at an MOI of 0.02 in 500 μl medium. The HIV concentration of cells in culture was determined using a P24 assay with an Alliance HIV-1 P24 ELISA kit. (PerkinElmer, Waltham, Mass., USA). For a long term HIV challenge, 1×10^5 CCRF-CEM cells stably expressing shRNA or shRNA-aptamer fusions were infected with HIV-1 NL4-3 viruses at MOI of 0.02 in 500 μl medium. […]
To test if the shRNA-fusions can exert inhibition during subsequent infection cycles using replication competent HIV, stable Ghost3+CXCR4+CCR5 cell lines expressing the shLuc alone and the shLuc-S1R1, shLuc-S3R1 and shLuc-53R3 fusions were generated (abbreviated as Ghost3 cells in following text) (Morner, et al., 1999). […] The HIV concentration in cultures was monitored by P24 assay for 9 days.

[2] = tested on: HIV; settings: 10% FBS cell culture; cited from earlier work
[3] = molecular target: T1, HIS tagged HIV-1 Integrase (HIS-IN) (Human immunodeficiency virus type 1 group M subtype B, UniProt P12497, C1427S/F1332K); type: binding
T1 construct: HIS tagged HIV-1 Integrase (HIS-IN) expression vector; made in house; host or cells: E. coli strain C3016
Procedure: The gel mobility shift assay was carried out as described (Zhou, et al, 2009). RNA aptamers were transcribed from annealed oligonucleotide pairs (Table 1) containing T7 promoter sequences using Megashortscript T7 transcription kit (Thermofisher Scientific, Waltham, Mass., USA). Percentage binding was determined by Image J (http://imagej.nih.gov/ij/index.html). ^32P labeled and folded aptamers (final concentration of 2 nM) were incubated with HIS-IN protein (final concentration of 0, 20, 40, 80, 160 and 320 nM) at 37° C. for 30 min. The complexes were then separated by 5% native polyacrylamide gel. Autoradiographs were acquired via Typhoon phosphorimaging system (GE Healtcare Life Science, Pittsburgh Pa. 15264, USA). Digital images were imported and analyzed by ImageJ software (http://imagej.nih.gov/ij/index.html). 50 percent binding values were determined by the Prism 6 software (GraphPad Software Inc) using non-linear curve regression. Northern analysis of total or fractionated RNAs was carried out as described (Castanott, et al., 2009) using probes listed in primer list (Table 1). Quantification of relative band intensity was measured and calculated using Image J software.

[4] = tested on: HIV7-GFP lentivirus; assay: Single cycle lentivirus HIV7-GFP challenge of stable HEK293 cells, FACS; type: cell-based, HIV; settings: aptamer alone expressed directly from U6 promoter, HEK293, MOI 0.3, FACS 10 days after transduction
Excerpt: A direct functional assay was used to test the inhibitory effect of the aptamer candidates for combinational gene therapy in T cells or hematopoietic stem cells (HSC). To this end, plasmids (pJR255) consisting of: 1) a U6 promoter for inducing the expression of the aptamers, 2) a G418 resistant cassette for selection, and 3) an mCherry marker for cell purification and functional analysis were generated. (FIG. 11). RNAs expressed from U6 (pol III) promoter lack nucleus export signals and stay in the nucleus (18,19,20,21). Integrase functions primarily in the nucleus. […] Each population of cells was transduced with lentiHIV particles at an MOI of 0.3. The transduced cells were analyzed by FACS 10 days after transduction to minimize the effects of GFP from nonintegrated viral DNA. If an aptamer exerts any inhibition of HIV integrase, the percentage of GFP and mCherry double-positive cells should be reduced compared to the control.
For the lentivirus challenge, 5×10^4 HEK293 cells stably expressing the aptamer alone, the shRNA alone or the shRNA-aptamer fusions were transduced with HIV7-GFP lentivirus particles at an MOI of 0.3 in 500 μl cell culture medium. Cells were harvested 10 days post-transduction and analyzed by FACS. […] The HIV concentration of cells in culture was determined using a P24 assay with an Alliance HIV-1 P24 ELISA kit. […]

[5] = tested on: firefly luciferase; assay: Luciferase assay in HEK293 clone stably expressing firefly luciferase; type: cell-based; settings: U6 driven shLuc or shLuc-aptamer fusion, Day 2 or Day 3 after transfection
Procedure: A HEK293 cell clone stably expressing firefly luciferase was transfected with the plasmids expressing the shLuc or the shLuc-aptamer fusions. Cells were harvested two or three days post-transfection and their firefly luciferase activities were determined by the Luciferase Assay System (Promega, Madison, Wis., USA).
Using a luciferase assay, export of the shRNA-aptamer fusion into the cytoplasm was tested. […] (FIG. 4B). […] Northern blot analyses on fractionated samples were performed to further assess the distribution and processing of the shLuc-aptamer fusion.

[6] = tested on: HIV-1 NL4-3; assay: Long term HIV challenge of stable CCRF-CEM cells, p24 assay; type: cell-based; settings: pNL4-3 MOI 0.01, monitored six weeks
Procedure: To generate stable CCRF-CEM cell lines, 2 million cells were transfected with […]-based plasmids, that express shLuc, shLuc-S1R1, shLuc-S3R1 and shLuc-S3R3, by electroporation using the Nucleofactor kit according to the manufacturer's protocol (Lonza, Basel, Switzerland). G418 selection and FACS were performed similar to that of HEK293 cells.
as §1, with “USA).” for “USA). For a long term HIV challenge, 1×10^5 CCRF-CEM cells stably expressing shRNA or shRNA-aptamer fusions were infected with HIV-1 NL4-3 viruses at MOI of 0.02 in 500 μl medium.”
The long-term efficacy of shRNA-aptamer fusions in CD4 positive T cells was tested using CEM cells stably expressing shLuc, shLuc-S3R3, shS1 or shS1-S3R3. […] HIV concentrations were monitored for six weeks by p24 assay (FIG. 8). […] In summary, anti-integrase aptamer expressed as an shRNA-aptamer fusion can confer long term resistance to HIV-1 replication in T cells. […]

[7] = Human immunodeficiency virus 1, BAL, 216 h, read-out: inhibition of HIV replication

For `Cc1nnc(C(=O)NC(C)(C)c2nc(C(=O)NCc3ccc(F)cc3)c(O)c(=O)n2C)o1` [Raltegravir, reference compound], the inhibition at 0.002 µM [1, 7] is given as 96%, the inhibition at 0.02 µM [1, 7] is given as > 99% and the IC50 [2] is given as 2 nM. For the same molecule, the IC95 [2] was 20 nM.

For “S3R3: anti-HIV integrase RNA aptamer; variable region CGTCGTATGCTGCGCCATGGGGTGGACTG (SEQ ID NO:5) (variable region only, further chemistry not given here)”, the Kd ([3]; 2 nM 32P labeled aptamer, HIS-IN 0-320 nM, 37° C. 30 min, read-out: binding affinity to HIS-IN (50 percent binding value)) was 47 nM, the “binding affinity to HIS-IN compared to S1R1” value ([3]; gel shift) was “higher binding affinity” and the “inhibition of HIV-7GFP integration” value [4] was “did not inhibit”. The “HIV inhibition, in words” value ([1]; Ba-L, Ghost3 cells, p24 monitored for 9 days) was “weaker than a low dose of Raltegravir”.

B1: shLuc: U6 promoter driven shRNA targeting luciferase with an artificial 10 bases loop (nucleic acid)
chain 1: CACCGCTTACGCTGAGTACTTCGAAATTGAAGCTTGTTTCGAAGTACTCAGCGTAAG
chain 2: AAAACTTACGCTGAGTACTTCGAAACAAGCTTCAATTTCGAAGTACTCAGCGTAAGC
modifications: the letters are possibly those of the target site
notes: U6 promoter driven shRNA targeting luciferase with an artificial 10 bases loop
For B1, the “inhibition of luciferase activity” value [5] was “slightly stronger”.

B2: S3R1: anti-HIV integrase RNA aptamer, oligos JRO502/JRO503 (SEQ ID NO: 15, 16) (nucleic acid)
DNA 1: CACCGCGGGCCCTAGACGCGCTGCCGTGGAGGAGGAGGTTGGTGGCGCGAGAGGTG
DNA 2: AAAACACCTCTCGCGCCACCAACCTCCTCCTCCACGGCAGCGCGTCTAGGGCCCGC
modifications: listed as DNA, chemistry not fully specified; the letters are possibly those of the target site
In the case of B2, the “inhibition of HIV-7GFP integration” value [4] is reported as “did not inhibit”.

B3: shLuc-S3R3: shLuc-aptamer fusion with integrase aptamer S3R3 (SEQ ID NO: 23, 24) (nucleic acid)
DNA 1: CACCGCTTACGCTGAGTACTTCGAAACAAGGAGGACGATGCGGGCCGTCGTATGCTGCGCCATGGGGTGGACTGGGTGGCGCGAAGTTCGAAGTACTCAGCGTAAG
DNA 2: AAAACTTACGCTGAGTACTTCGAACTTCGCGCCACCCAGTCCACCCCATGGCGCAGCATACGACGGCCCGCATCGTCCTCCTTGTTTCGAAGTACTCAGCGTAAGC
modifications: expressed or natural sequence; the letters are possibly those of the target site
For B3, the “inhibition of HIV replication (relative P24 concentration compared to shLuc control)” value ([1]; Ghost3 cells expressing shRNA or shRNA-aptamer fusion, Ba-L MOI 0.02, Day 9) was ~85% and 78% and the “viral concentration (p24) relative to control (shLuc)” value [6] was “more than three orders of magnitude lower”.
